From US20070117743A1, “New antitumoral compounds” (priority 2003, published 2007)
Where a SMILES comes first, the peptide text is derived from it. Bridges are numbered along the chain shown (N, C = ends). [ ]: non-standard residue; d: D form. The star is where a group is joined. d(aIle) = CC[C@H](C)[C@@H](N)C(=O)O; d(aThr) = C[C@@H](O)[C@@H](N)C(=O)O; Hexanoyl(5-Me) = CC(C)CCCC(=O)*; Orn = NCCC[C@H](N)C(=O)O; Dhb = C/C=C(\N)C(=O)O

Assays:
Format in all cases: cell-based, human
A-549 = assay: SRB colorimetric assay of cell growth and viability, A-549; details: 48 hours exposure; for GI50: read-out: GI50 A-549; for CC50: read-out: LC50 A-549
SK-MEL-28 = assay: SRB colorimetric assay of cell growth and viability, SK-MEL-28; details: 48 hours exposure; for CC50: read-out: LC50 MEL-28
HT-29 = assay: SRB colorimetric assay of cell growth and viability, HT-29; details: 48 hours exposure; for GI50: read-out: GI50 HT-29; for CC50: read-out: LC50 HT-29
LoVo = assay: SRB colorimetric assay of cell growth and viability, LoVo; details: 48 hours exposure; for CC50: read-out: LC50 LOVO
DU-145 = assay: SRB colorimetric assay of cell growth and viability, DU-145; details: 48 hours exposure
LNCaP = assay: SRB colorimetric assay of cell growth and viability, LNCaP; details: 48 hours exposure; for GI50: read-out: GI50 LN-caP; for CC50: read-out: LC50 LN-caP
SK-BR-3 = assay: SRB colorimetric assay of cell growth and viability, SK-BR-3; details: 48 hours exposure
IGROV-1 = assay: SRB colorimetric assay of cell growth and viability, IGROV-1; details: 48 hours exposure
IGROV-ET = assay: SRB colorimetric assay of cell growth and viability, IGROV-ET; details: 48 hours exposure; for CC50: read-out: LC50 IGROV-ET
HeLa = assay: SRB colorimetric assay of cell growth and viability, HeLa; details: 48 hours exposure; for CC50: read-out: LC50 HELA
HeLa-APL = assay: SRB colorimetric assay of cell growth and viability, HeLa-APL; details: 48 hours exposure; for CC50: read-out: LC50 HELA-APL
K-562 = assay: SRB colorimetric assay of cell growth and viability, K-562; details: 48 hours exposure; for CC50: read-out: LC50 K-562
PANC-1 = assay: SRB colorimetric assay of cell growth and viability, PANC-1; details: 48 hours exposure; for CC50: read-out: LC50 PANC-1

`C/C=C1\NC(=O)[C@H](Cc2ccccc2)NC(=O)[C@@H](C(C)C)NC(=O)[C@@H]([C@@H](C)CC)NC(=O)[C@H](NC(=O)[C@H](NC(=O)[C@H](CCCN)NC(=O)[C@H]2CCCN2C(=O)[C@H](NC(=O)[C@H](Cc2ccccc2)NC(=O)[C@@H](NC(=O)[C@H](NC(=O)CCCC(C)C)C(C)C)[C@@H](C)O)C(C)C)[C@@H](C)CC)[C@@H](C)OC(=O)[C@H](C(C)C)NC1=O` [Compound 43, [Phe^11]-KF] ({Hexanoyl(5-Me)}-[dV]TF[dV][dP][Orn][d(aIle)][d(aThr)][d(aIle)][dV]F[Dhb]V; ester 8-C) was tested, and the “TGI A-549” value (A-549) was 1.40E−06 Molar, the GI50 (A-549) was 521 nM and the CC50 (A-549) was 3410 nM. The GI50 (SK-MEL-28) was 780 nM, the “TGI MEL-28” value (SK-MEL-28) was 1.66E−06 Molar and the CC50 (SK-MEL-28) was 3570 nM. For the same molecule, the “TGI HT-29” value (HT-29) was 2.73E−07 Molar, the GI50 (HT-29) was 141 nM and the CC50 (HT-29) was 531 nM. For the same molecule, the GI50 (LoVo) was 105 nM, the “TGI LOVO” value (LoVo) was 2.22E−07 Molar and the CC50 (LoVo) was 471 nM. For the same molecule, the GI50 (DU-145) was 476 nM, the LC50 (concentration causing 50% net cell kill) (DU-145) was 3220 nM and the “TGI DU-145” value (DU-145) was 1.34E−06 Molar. For the same molecule, the “TGI LN-caP” value (LNCaP) was 1.97E−06 Molar, the GI50 (LNCaP) was 852 nM and the CC50 (LNCaP) was 4550 nM. The GI50 (SK-BR-3) was 119 nM, the LC50 (SK-BR-3) was 634 nM and the “TGI SK-BR-3” value (SK-BR-3) was 2.75E−07 Molar. The GI50 (IGROV-1) was 241 nM, the LC50 (concentration causing 50% net cell killing) (IGROV-1) was 3680 nM and the “TGI IGROV” value (IGROV-1) was 7.67E−07 Molar. For the same molecule, the GI50 (IGROV-ET) was 233 nM, the “TGI IGROV-ET” value (IGROV-ET) was 6.28E−07 Molar and the CC50 (IGROV-ET) was 2530 nM. The GI50 (HeLa) was 397 nM, the “TGI HELA” value (HeLa) was 1.32E−06 Molar and the CC50 (HeLa) was 3950 nM. The GI50 (HeLa-APL) was 793 nM, the “TGI HELA-APL” value (HeLa-APL) was 1.77E−06 Molar and the CC50 (HeLa-APL) was 3930 nM. For the same molecule, the GI50 (K-562) was 1230 nM, the “TGI K-562” value (K-562) was 2.18E−06 Molar and the CC50 (K-562) was 3850 nM. For the same molecule, the GI50 (PANC-1) was 1790 nM, the “TGI PANC-1” value (PANC-1) was 4.86E−06 Molar and the CC50 (PANC-1) was 6550 nM.

For `C/C=C1\NC(=O)[C@H](Cc2ccccc2)NC(=O)[C@@H](C(C)C)NC(=O)[C@@H]([C@@H](C)CC)NC(=O)[C@H](NC(=O)[C@H](NC(=O)[C@H](CCCN)NC(=O)[C@H]2CCCN2C(=O)[C@H](NC(=O)[C@@H](NC(=O)[C@@H](NC(=O)[C@H](NC(=O)c2ccccc2)C(C)C)[C@@H](C)O)C(C)C)C(C)C)[C@@H](C)CC)[C@@H](C)OC(=O)[C@H](C(C)C)NC1=O` [Compound 20, [Bza^14]-KF], the “TGI A-549” value (A-549) was 1.95E−06 Molar, the GI50 (A-549) was 952 nM and the CC50 (A-549) was 3970 nM. For the same molecule, the GI50 (SK-MEL-28) was 1200 nM, the “TGI MEL-28” value (SK-MEL-28) was 2.26E−06 Molar and the CC50 (SK-MEL-28) was 4230 nM. For the same molecule, the “TGI HT-29” value (HT-29) was 1.64E−06 Molar, the GI50 (HT-29) was 694 nM and the CC50 (HT-29) was 3880 nM. The GI50 (LoVo) was 128 nM, the “TGI LOVO” value (LoVo) was 3.03E−07 Molar and the CC50 (LoVo) was 810 nM. The GI50 (DU-145) was 939 nM, the LC50 (concentration causing 50% net cell kill) (DU-145) was 4250 nM and the “TGI DU-145” value (DU-145) was 1.99E−06 Molar. The “TGI LN-caP” value (LNCaP) was 2.87E−06 Molar, the GI50 (LNCaP) was 1180 nM and the CC50 (LNCaP) was 6800 nM. For the same molecule, the GI50 (SK-BR-3) was 320 nM, the LC50 (SK-BR-3) was 3380 nM and the “TGI SK-BR-3” value (SK-BR-3) was 1.16E−06 Molar. The GI50 (IGROV-1) was 714 nM, the LC50 (concentration causing 50% net cell killing) (IGROV-1) was 4200 nM and the “TGI IGROV” value (IGROV-1) was 1.73E−06 Molar. The GI50 (IGROV-ET) was 755 nM, the “TGI IGROV-ET” value (IGROV-ET) was 1.78E−06 Molar and the CC50 (IGROV-ET) was 4200 nM. For the same molecule, the GI50 (HeLa) was 1110 nM, the “TGI HELA” value (HeLa) was 2.30E−06 Molar and the CC50 (HeLa) was 4760 nM. The GI50 (HeLa-APL) was 1010 nM, the “TGI HELA-APL” value (HeLa-APL) was 2.08E−06 Molar and the CC50 (HeLa-APL) was 4270 nM. For the same molecule, the GI50 (K-562) was 305 nM, the “TGI K-562” value (K-562) was 2.12E−06 Molar and the CC50 (K-562) was 6800 nM. For the same molecule, the GI50 (PANC-1) was 3790 nM, the “TGI PANC-1” value (PANC-1) was 6.80E−06 Molar and the CC50 (PANC-1) was 6800 nM.

In the case of `C/C=C1\NC(=O)[C@H](Cc2ccccc2)NC(=O)[C@@H](C(C)C)NC(=O)[C@@H]([C@@H](C)CC)NC(=O)[C@H](NC(=O)[C@H](NC(=O)[C@H](CCCN)NC(=O)[C@H]2CCCN2C(=O)[C@H](NC(=O)[C@@H](NC(=O)[C@@H](NC(=O)[C@H](NC(=O)c2ccc(C)cc2)C(C)C)[C@@H](C)O)C(C)C)C(C)C)[C@@H](C)CC)[C@@H](C)OC(=O)[C@H](C(C)C)NC1=O` [Compound 19, [p-MeBza^14]-KF], the “TGI A-549” value (A-549) is reported as 1.71E−06 Molar, the GI50 (A-549) is reported as 775 nM and the GI50 (SK-MEL-28) is reported as 1160 nM. For the same molecule, the “TGI MEL-28” value (SK-MEL-28) was 2.24E−06 Molar, the “TGI HT-29” value (HT-29) was 1.12E−06 Molar and the GI50 (HT-29) was 314 nM. For the same molecule, the GI50 (LoVo) was 120 nM, the “TGI LOVO” value (LoVo) was 2.35E−07 Molar and the GI50 (DU-145) was 775 nM. For the same molecule, the “TGI DU-145” value (DU-145) was 1.73E−06 Molar, the “TGI LN-caP” value (LNCaP) was 2.55E−06 Molar and the GI50 (LNCaP) was 1020 nM. The GI50 (SK-BR-3) was 170 nM, the “TGI SK-BR-3” value (SK-BR-3) was 3.77E−07 Molar and the GI50 (IGROV-1) was 343 nM. The “TGI IGROV” value (IGROV-1) was 1.37E−06 Molar, the GI50 (IGROV-ET) was 439 nM and the “TGI IGROV-ET” value (IGROV-ET) was 1.44E−06 Molar. For the same molecule, the GI50 (HeLa) was 849 nM, the “TGI HELA” value (HeLa) was 1.95E−06 Molar and the GI50 (HeLa-APL) was 923 nM. The “TGI HELA-APL” value (HeLa-APL) was 2.00E−06 Molar, the GI50 (K-562) was 762 nM and the “TGI K-562” value (K-562) was 2.01E−06 Molar. For the same molecule, the GI50 (PANC-1) was 2060 nM.

`C/C=C1\NC(=O)[C@H](Cc2ccccc2)NC(=O)[C@@H](C(C)C)NC(=O)[C@@H]([C@@H](C)CC)NC(=O)[C@H](NC(=O)[C@H](NC(=O)[C@H](CCCN)NC(=O)[C@H]2CCCN2C(=O)[C@H](NC(=O)[C@H](NC(=O)[C@@H](NC(=O)[C@H](NC(=O)CCCC(C)C)C(C)C)[C@@H](C)O)C(C)C)C(C)C)[C@@H](C)CC)[C@@H](C)OC(=O)[C@H](C(C)C)NC1=O` [Compound 46, [D-Val^11]-KF] was tested, and the “TGI A-549” value (A-549) was 6.77E−06 Molar, the GI50 (A-549) was 3670 nM and the CC50 (A-549) was no less than 6770 nM. The GI50 (SK-MEL-28) was no less than 6770 nM, the “TGI MEL-28” value (SK-MEL-28) was 6.77E−06 Molar and the CC50 (SK-MEL-28) was no less than 6770 nM. For the same molecule, the “TGI HT-29” value (HT-29) was 6.77E−06 Molar, the GI50 (HT-29) was 2500 nM and the CC50 (HT-29) was no less than 6770 nM. The GI50 (LoVo) was 1200 nM, the “TGI LOVO” value (LoVo) was 2.30E−06 Molar and the CC50 (LoVo) was 4400 nM. For the same molecule, the GI50 (DU-145) was 2430 nM, the LC50 (concentration causing 50% net cell kill) (DU-145) was no less than 6770 nM and the “TGI DU-145” value (DU-145) was 6.77E−06 Molar. For the same molecule, the “TGI LN-caP” value (LNCaP) was 6.77E−06 Molar, the GI50 (LNCaP) was 2420 nM and the CC50 (LNCaP) was no less than 6770 nM. For the same molecule, the GI50 (SK-BR-3) was 1350 nM, the LC50 (SK-BR-3) was 5620 nM and the “TGI SK-BR-3” value (SK-BR-3) was 2.75E−06 Molar. For the same molecule, the GI50 (IGROV-1) was 1500 nM, the LC50 (concentration causing 50% net cell killing) (IGROV-1) was no less than 6770 nM and the “TGI IGROV” value (IGROV-1) was 3.55E−06 Molar. For the same molecule, the GI50 (IGROV-ET) was 1670 nM, the “TGI IGROV-ET” value (IGROV-ET) was 3.62E−06 Molar and the CC50 (IGROV-ET) was no less than 6770 nM. The GI50 (HeLa) was 4610 nM, the “TGI HELA” value (HeLa) was 6.77E−06 Molar and the CC50 (HeLa) was no less than 6770 nM. For the same molecule, the GI50 (HeLa-APL) was 3300 nM, the “TGI HELA-APL” value (HeLa-APL) was 6.77E−06 Molar and the CC50 (HeLa-APL) was no less than 6770 nM. For the same molecule, the GI50 (K-562) was 3040 nM, the “TGI K-562” value (K-562) was 6.77E−06 Molar and the CC50 (K-562) was no less than 6770 nM. For the same molecule, the GI50 (PANC-1) was 3120 nM, the “TGI PANC-1” value (PANC-1) was 6.77E−06 Molar and the CC50 (PANC-1) was no less than 6770 nM.
